Laboratory results from ChEMBL document CHEMBL5653615 (J Biol Chem, 2013).

Columns and labels:
[1] = biological target: T1, Serine/threonine-protein kinase BRSK2 (Homo sapiens) (UniProt Q8IWQ3); experiment: Inhibition of human BRSK2 at 18.6 nM by HotSpot assay relative to control
T1 sequence (whole entry): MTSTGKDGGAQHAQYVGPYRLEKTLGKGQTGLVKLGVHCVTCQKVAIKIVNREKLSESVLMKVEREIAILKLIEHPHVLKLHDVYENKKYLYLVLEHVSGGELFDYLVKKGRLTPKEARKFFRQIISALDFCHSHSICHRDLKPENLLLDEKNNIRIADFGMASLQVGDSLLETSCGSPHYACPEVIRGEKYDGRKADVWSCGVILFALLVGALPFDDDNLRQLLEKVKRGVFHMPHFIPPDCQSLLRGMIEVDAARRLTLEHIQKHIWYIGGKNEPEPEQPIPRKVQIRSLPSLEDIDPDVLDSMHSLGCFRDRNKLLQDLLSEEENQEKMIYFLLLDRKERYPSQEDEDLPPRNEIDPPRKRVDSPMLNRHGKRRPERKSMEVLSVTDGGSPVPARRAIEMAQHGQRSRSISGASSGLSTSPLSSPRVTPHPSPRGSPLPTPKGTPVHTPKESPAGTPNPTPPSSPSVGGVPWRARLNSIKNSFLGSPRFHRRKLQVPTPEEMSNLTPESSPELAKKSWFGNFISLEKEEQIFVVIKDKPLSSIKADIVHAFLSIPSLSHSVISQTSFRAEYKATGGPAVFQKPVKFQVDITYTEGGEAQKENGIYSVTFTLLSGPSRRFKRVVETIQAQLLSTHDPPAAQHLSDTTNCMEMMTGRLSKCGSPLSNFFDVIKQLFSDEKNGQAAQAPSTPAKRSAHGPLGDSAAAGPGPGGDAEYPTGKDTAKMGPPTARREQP

[2] = biological target: Mitogen-activated protein kinase kinase kinase 8 (Homo sapiens) (UniProt P41279); experiment: Inhibition of human COT1 at 18.6 nM by HotSpot assay relative to control
Mitogen-activated protein kinase kinase kinase 8 (Homo sapiens), sequence (P41279 whole entry): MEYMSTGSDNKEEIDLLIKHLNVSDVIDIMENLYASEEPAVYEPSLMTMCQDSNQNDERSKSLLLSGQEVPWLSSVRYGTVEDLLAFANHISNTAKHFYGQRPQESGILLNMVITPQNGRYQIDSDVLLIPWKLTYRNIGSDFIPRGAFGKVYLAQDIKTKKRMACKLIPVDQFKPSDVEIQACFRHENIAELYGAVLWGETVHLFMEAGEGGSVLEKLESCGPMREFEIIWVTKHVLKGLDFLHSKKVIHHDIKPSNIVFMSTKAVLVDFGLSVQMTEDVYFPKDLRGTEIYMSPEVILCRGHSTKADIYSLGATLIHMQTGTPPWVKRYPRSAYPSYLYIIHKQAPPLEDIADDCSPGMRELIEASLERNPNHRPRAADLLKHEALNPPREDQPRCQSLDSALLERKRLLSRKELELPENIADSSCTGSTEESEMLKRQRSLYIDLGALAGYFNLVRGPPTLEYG

[3] = biological target: T2, Ephrin type-B receptor 3 (Homo sapiens) (UniProt P54753); experiment: Inhibition of human EPHB3 at 18.6 nM by HotSpot assay relative to control
T2 sequence (whole entry): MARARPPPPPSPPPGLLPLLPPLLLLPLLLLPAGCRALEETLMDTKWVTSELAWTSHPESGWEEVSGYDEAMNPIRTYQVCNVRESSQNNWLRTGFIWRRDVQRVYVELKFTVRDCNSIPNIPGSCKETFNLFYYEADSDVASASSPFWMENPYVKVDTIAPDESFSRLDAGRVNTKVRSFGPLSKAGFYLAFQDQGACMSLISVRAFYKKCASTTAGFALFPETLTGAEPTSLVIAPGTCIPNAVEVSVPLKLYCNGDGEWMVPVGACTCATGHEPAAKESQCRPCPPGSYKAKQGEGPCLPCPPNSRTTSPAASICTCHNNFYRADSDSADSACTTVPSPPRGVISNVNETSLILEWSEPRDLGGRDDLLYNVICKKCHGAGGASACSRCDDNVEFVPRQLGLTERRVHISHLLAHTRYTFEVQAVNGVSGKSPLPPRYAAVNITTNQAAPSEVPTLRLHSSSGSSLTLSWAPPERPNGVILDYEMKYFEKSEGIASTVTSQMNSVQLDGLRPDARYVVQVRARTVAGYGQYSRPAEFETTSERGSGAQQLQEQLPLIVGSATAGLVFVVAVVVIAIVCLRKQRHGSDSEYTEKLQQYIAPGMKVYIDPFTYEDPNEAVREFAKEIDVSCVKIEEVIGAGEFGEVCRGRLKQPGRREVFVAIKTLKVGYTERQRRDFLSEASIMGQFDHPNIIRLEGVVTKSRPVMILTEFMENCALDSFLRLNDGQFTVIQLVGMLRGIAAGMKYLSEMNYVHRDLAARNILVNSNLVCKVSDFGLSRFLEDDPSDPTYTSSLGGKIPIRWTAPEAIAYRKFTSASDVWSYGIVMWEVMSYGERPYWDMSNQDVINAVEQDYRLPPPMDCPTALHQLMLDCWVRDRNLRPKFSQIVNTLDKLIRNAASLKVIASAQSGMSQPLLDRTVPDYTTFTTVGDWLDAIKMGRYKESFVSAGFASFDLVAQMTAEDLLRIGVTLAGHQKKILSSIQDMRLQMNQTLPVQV

[4] = biological target: Focal adhesion kinase 1 (Homo sapiens) (UniProt Q05397); experiment: Inhibition of human FAK at 18.6 nM by HotSpot assay relative to control
[5] = biological target: Glycogen synthase kinase-3 alpha (Homo sapiens) (UniProt P49840); experiment: Inhibition of human GSK3a at 18.6 nM by HotSpot assay relative to control
Glycogen synthase kinase-3 alpha (Homo sapiens), sequence (P49840 2-483 limits assumed): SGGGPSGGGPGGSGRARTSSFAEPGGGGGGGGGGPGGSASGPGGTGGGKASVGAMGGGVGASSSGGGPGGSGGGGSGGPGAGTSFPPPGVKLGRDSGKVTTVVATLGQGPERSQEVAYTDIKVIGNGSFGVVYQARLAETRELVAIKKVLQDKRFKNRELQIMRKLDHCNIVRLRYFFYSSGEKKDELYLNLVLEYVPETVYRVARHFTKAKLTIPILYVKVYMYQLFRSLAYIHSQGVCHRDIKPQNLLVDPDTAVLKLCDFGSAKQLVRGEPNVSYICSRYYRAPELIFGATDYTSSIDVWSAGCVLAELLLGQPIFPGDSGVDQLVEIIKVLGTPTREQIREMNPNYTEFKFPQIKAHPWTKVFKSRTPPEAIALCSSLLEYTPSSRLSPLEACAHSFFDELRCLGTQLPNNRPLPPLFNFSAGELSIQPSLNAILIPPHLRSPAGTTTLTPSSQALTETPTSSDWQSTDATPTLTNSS

[6] = biological target: MAP kinase-interacting serine/threonine-protein kinase 1 (Homo sapiens) (UniProt Q9BUB5); experiment: Inhibition of human MNK1 at 18.6 nM by HotSpot assay relative to control
[7] = biological target: Serine/threonine-protein kinase 33 (Homo sapiens) (UniProt Q9BYT3); experiment: Inhibition of human STK33 at 18.6 nM by HotSpot assay relative to control
Serine/threonine-protein kinase 33 (Homo sapiens), sequence (Q9BYT3 whole entry, looked up): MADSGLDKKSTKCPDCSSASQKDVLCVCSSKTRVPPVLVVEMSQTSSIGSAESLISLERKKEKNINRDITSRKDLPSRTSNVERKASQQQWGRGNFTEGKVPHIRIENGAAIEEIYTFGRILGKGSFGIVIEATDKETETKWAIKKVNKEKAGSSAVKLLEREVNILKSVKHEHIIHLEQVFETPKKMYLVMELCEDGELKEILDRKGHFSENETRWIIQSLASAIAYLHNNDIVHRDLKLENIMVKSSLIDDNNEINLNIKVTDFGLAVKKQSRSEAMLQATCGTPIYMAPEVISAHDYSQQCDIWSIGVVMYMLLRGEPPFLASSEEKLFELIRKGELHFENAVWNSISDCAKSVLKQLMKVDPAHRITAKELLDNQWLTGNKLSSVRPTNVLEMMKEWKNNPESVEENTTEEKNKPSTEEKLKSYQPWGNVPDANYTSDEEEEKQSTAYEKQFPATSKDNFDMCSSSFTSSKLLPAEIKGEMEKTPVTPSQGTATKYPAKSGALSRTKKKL

[8] = biological target: NT-3 growth factor receptor (Homo sapiens) (UniProt Q16288); experiment: Inhibition of human TRKC at 18.6 nM by HotSpot assay relative to control
NT-3 growth factor receptor (Homo sapiens), sequence (Q16288 32-839 limits assumed): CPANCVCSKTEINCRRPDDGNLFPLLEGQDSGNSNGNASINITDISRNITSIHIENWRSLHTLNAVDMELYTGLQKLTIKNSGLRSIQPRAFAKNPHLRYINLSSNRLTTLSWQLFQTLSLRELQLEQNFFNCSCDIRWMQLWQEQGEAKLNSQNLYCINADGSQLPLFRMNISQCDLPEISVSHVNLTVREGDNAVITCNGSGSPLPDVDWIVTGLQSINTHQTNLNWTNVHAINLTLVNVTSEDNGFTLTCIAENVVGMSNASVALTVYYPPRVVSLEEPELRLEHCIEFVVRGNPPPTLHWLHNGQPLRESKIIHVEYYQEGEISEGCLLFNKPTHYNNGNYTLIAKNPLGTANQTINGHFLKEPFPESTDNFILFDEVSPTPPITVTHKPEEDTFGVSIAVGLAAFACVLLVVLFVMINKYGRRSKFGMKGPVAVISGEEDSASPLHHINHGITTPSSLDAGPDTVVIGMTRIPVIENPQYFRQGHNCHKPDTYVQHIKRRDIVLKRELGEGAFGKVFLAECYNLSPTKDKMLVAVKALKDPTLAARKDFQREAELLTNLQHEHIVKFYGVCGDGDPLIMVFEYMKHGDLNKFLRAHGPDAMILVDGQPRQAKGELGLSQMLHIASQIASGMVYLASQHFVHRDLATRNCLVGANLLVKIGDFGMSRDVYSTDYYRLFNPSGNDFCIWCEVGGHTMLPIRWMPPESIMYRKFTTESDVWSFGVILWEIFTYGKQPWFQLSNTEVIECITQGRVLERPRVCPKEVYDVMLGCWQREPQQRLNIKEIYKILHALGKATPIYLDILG

[9] = biological target: Tyrosine-protein kinase Fer (Homo sapiens) (UniProt P16591); experiment: Inhibition of human FER at 1.82 nM by HotSpot assay relative to control
Tyrosine-protein kinase Fer (Homo sapiens), sequence (P16591 whole entry, looked up): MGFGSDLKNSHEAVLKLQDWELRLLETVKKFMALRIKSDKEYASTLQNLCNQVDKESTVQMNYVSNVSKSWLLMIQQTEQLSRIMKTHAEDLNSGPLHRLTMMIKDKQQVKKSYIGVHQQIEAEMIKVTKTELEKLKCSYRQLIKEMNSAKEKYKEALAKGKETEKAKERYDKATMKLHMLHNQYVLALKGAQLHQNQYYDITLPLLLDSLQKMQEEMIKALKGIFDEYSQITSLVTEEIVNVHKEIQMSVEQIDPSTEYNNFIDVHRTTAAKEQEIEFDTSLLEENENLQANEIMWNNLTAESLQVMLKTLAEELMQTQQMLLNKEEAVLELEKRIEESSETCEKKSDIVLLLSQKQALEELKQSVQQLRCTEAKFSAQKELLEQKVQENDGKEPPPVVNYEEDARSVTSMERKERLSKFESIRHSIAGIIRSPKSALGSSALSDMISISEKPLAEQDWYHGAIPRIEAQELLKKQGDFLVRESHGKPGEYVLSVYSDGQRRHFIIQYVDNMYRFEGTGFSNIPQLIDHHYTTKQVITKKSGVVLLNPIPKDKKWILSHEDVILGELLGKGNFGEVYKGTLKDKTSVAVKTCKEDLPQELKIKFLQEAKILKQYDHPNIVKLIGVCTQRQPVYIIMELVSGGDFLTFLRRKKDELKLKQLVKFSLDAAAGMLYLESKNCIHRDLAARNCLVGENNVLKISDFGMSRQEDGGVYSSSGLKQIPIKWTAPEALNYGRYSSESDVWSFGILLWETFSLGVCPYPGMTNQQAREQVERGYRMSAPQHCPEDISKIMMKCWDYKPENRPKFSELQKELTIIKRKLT

[10] = biological target: Mitogen-activated protein kinase kinase kinase 10 (Homo sapiens) (UniProt Q02779); experiment: Inhibition of human MAP3K10 at 1.82 nM by HotSpot assay relative to control
Mitogen-activated protein kinase kinase kinase 10 (Homo sapiens), sequence (Q02779 whole entry, looked up): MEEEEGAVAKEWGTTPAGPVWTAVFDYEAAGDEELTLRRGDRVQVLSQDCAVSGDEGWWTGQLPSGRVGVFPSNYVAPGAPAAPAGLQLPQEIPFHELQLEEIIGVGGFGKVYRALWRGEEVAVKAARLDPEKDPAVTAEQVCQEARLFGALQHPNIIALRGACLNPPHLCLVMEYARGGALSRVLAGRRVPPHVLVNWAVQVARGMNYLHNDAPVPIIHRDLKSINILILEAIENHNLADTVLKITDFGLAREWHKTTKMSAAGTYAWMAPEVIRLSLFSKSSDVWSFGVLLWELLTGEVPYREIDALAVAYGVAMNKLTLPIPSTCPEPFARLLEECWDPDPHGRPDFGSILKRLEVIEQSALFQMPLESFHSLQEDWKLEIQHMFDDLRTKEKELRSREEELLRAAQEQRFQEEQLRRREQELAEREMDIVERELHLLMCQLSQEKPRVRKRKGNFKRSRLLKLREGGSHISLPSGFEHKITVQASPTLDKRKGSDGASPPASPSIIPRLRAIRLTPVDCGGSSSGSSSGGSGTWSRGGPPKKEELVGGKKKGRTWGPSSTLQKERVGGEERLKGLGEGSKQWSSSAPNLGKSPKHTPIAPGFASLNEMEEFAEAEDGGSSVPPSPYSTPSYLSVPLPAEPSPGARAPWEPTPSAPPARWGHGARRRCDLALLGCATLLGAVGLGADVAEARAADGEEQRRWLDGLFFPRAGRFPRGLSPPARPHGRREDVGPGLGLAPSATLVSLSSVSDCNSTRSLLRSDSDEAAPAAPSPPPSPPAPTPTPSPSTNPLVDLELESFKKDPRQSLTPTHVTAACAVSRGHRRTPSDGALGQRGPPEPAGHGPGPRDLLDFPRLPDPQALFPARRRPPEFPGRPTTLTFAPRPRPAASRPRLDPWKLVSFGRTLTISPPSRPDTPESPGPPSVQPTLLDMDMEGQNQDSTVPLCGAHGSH

[11] = biological target: T3, Serine/threonine-protein kinase 3 (Homo sapiens) (UniProt Q13188); experiment: Inhibition of human STK3 at 1.82 nM by HotSpot assay relative to control
T3 sequence (whole entry): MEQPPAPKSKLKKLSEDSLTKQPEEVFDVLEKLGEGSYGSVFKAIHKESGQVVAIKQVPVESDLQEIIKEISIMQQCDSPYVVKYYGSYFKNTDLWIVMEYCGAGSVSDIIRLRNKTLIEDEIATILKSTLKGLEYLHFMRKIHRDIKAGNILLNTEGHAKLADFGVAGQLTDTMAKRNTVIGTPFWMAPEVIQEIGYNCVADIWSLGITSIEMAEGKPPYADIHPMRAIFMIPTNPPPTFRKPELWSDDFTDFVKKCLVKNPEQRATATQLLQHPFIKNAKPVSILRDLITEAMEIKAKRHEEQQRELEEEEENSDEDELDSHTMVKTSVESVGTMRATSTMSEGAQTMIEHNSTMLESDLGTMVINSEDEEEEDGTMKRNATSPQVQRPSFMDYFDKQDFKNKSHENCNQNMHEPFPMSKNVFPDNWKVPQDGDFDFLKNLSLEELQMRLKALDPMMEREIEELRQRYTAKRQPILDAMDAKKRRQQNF

[12] = biological target: Serine/threonine-protein kinase PAK 4 (Homo sapiens) (UniProt O96013); experiment: Inhibition of human PAK4 at 1.82 nM by HotSpot assay relative to control
Serine/threonine-protein kinase PAK 4 (Homo sapiens), sequence (O96013 whole entry, looked up): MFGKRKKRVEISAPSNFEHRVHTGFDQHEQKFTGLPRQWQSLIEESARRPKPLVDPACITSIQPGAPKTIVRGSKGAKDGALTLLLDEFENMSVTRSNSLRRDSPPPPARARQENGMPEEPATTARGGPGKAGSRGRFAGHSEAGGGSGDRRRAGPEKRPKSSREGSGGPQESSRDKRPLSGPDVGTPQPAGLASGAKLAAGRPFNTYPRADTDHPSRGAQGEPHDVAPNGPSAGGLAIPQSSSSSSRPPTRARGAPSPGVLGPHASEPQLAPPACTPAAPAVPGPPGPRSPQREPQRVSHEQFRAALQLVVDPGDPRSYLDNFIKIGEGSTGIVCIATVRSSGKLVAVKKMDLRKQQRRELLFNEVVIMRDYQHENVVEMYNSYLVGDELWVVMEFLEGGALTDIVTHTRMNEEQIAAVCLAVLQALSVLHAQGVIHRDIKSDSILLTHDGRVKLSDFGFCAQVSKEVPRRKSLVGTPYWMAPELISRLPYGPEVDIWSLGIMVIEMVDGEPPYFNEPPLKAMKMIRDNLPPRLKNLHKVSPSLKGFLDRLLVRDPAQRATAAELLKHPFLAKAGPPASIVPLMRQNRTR

| SMILES | inhibition [1] [%] | inhibition [2] [%] | inhibition [3] [%] | inhibition [4] [%] | inhibition [5] [%] | inhibition [6] [%] | inhibition [7] [%] | inhibition [8] [%] | inhibition [9] [%] | inhibition [10] [%] | inhibition [11] [%] | inhibition [12] [%] |
| --- | --- | --- | --- | --- | --- | --- | --- | --- | --- | --- | --- | --- |
| C[C@]1(O)C[C@@H](c2nc(-c3ccc4ccc(-c5ccccc5)nc4c3)c3c(N)nccn32)C1 | -4.68 | 4.92 | -2.53 | 1.73 | -3.5 | 0.3 | -0.08 | 0.03 |  |  |  |  |
| C[C@@]1(C(=O)Nc2ccc(F)nc2)CCCN1c1nc(Nc2cc(C3CC3)n[nH]2)c2cccn2n1 |  |  |  |  |  |  |  |  | -2.54 | -1.81 | 1.56 | -3.15 |
